Among the data in ChEMBL document CHEMBL1151317, “A new bromopyrrole alkaloid and the optical resolution of the racemate from the marine sponge homaxinella sp” (1998) are EC50 values, retold here.

In brackets after ≈: the same amount, converted by molar mass.

The subject of this test is P388. Put plainly: Cytotoxicity against mouse P388 cells. It counts as functional. To be noted: read-out: ED50 (the source's name).

As for `COCNC(=O)c1cc(Br)c(Br)[nH]1`, the EC50 worked out at 21.5 µg/mL (≈ 68.9 µM).
For the compound `COC(=O)CC1CNC(=O)c2cc(Br)c(Br)n21` (racemic), the EC50 amounted to 30 µg/mL (≈ 82 µM).
For the compound `O=C1NCC(O)n2c1cc(Br)c2Br` (racemic) [LONGAMIDE], the EC50 was more than 100 µg/mL.
